Values joined by “and” are separate entries in the source; they are usually repeats but may differ in a detail not shown here. Equal values may be shown once. Toxic doses and inconclusive results are not listed.

In PubChem BioAssay AID330 (DTP/NCI, 2004) one finds T/C data, which are given here for 21 molecules.

This experiment concerns P388 leukemia ip, CD2F1 mice, survival T/C. Description: NCI In Vivo Anticancer Drug Screen. Data for tumor model P388 Leukemia (intraperitoneal) in CD2F1 (CDF1) mice. The conditions noted are these: endpoint: median survival time, higher = longer survival. The method, boiled down:
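Mice carrying the transplanted tumor received test compound or vehicle. Survival was recorded in each group, and the value is the treated-group measurement divided by that of the vehicle-treated control group.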

Setting [1] is: dose: 60.0 mg/kg/injection, schedule: Q01DX005 (ip), vehicle: saline with Tween-80.
Setting [2] is: dose: 120.0 mg/kg/injection, schedule: Q01DX005 (ip), vehicle: saline with Tween-80.
Where [3] appears, read: dose: 240.0 mg/kg/injection, schedule: Q01DX005 (ip), vehicle: saline with Tween-80.
Where [4] appears, read: dose: 50.0 mg/kg/injection, schedule: Q01DX009 (ip), vehicle: saline with Tween-80.
The mark [5] stands for this setting: dose: 50.0 mg/kg/injection, schedule: Q01DX005 (ip), vehicle: Klucel (hydroxypropylcellulose) (HPC).
Setting [6] is: dose: 25.0 mg/kg/injection, schedule: Q01DX009 (ip), vehicle: saline.
Where [7] appears, read: dose: 50.0 mg/kg/injection, schedule: Q01DX009 (ip), vehicle: saline.
Setting [8] is: dose: 100.0 mg/kg/injection, schedule: Q01DX009 (ip), vehicle: saline.
Setting [9] is: dose: 200.0 mg/kg/injection, schedule: Q01DX009 (ip), vehicle: saline.
Setting [10] is: dose: 100.0 mg/kg/injection, schedule: Q01DX009 (ip), vehicle: saline with Tween-80.
The mark [11] stands for this setting: dose: 200.0 mg/kg/injection, schedule: Q01DX009 (ip), vehicle: saline with Tween-80.

For the molecule `c1ccc2c(c1)NC1=C(CSCC1)c1nncn1-2`, the T/C reads like this: (dose: 100.0 mg/kg/injection, schedule: Q05DX002 (ip), vehicle: Klucel (hydroxypropylcellulose) (HPC)) 104 % of control; (dose: 200.0 mg/kg/injection, schedule: Q05DX002 (ip), vehicle: Klucel (hydroxypropylcellulose) (HPC)) 100 % of control; (dose: 400.0 mg/kg/injection, schedule: Q05DX002 (ip), vehicle: Klucel (hydroxypropylcellulose) (HPC)) 109 % of control.

On to `CC[C@@H](O)[C@H](CC[Se]c1ccccc1)C(=O)[C@H](O)C1CCCCC1`, for which the T/C runs as follows: under setting [1], 107 % of control; under setting [2], 105 % of control; under setting [3], 108 % of control.

For `COC(=O)c1cc(/C=C/c2ccccc2)[nH]c(=O)c1C#N`, the T/C is 106 % of control under setting [1], 105 % of control under setting [2] and 98 % of control under setting [3].

Turning to `Cc1cc(=O)c2c([nH]1)c1c(c3[nH]c(C)cc(=O)c32)Oc2ccccc2O1`, the T/C reads like this: (dose: 50.0 mg/kg/injection, schedule: Q01DX005 (ip), vehicle: saline with Tween-80) 93 % of control; (dose: 100.0 mg/kg/injection, schedule: Q01DX005 (ip), vehicle: saline with Tween-80) 95 % of control; (dose: 200.0 mg/kg/injection, schedule: Q01DX005 (ip), vehicle: saline with Tween-80) 97 % of control.

Regarding `CC(C)CNC12CN3CN(CN(C3)C1)C2`, the T/C is 98 % of control (dose: 100.0 mg/kg/injection, schedule: Q04DX003 (ip), vehicle: saline); 90 % of control (dose: 200.0 mg/kg/injection, schedule: Q04DX003 (ip), vehicle: saline); 92 % of control (dose: 400.0 mg/kg/injection, schedule: Q04DX003 (ip), vehicle: saline).

As for `CCCCCCC(CCC1CCCCC1)C(=O)O` (stereo unspecified), the T/C was 109 % of control (dose: 50.0 mg/kg/injection, schedule: Q01DX001 (ip), vehicle: saline with Tween-80); 109 % of control (dose: 100.0 mg/kg/injection, schedule: Q01DX001 (ip), vehicle: saline with Tween-80); 100 % of control (dose: 200.0 mg/kg/injection, schedule: Q01DX001 (ip), vehicle: saline with Tween-80).

On to `O=S1(=O)CCC(c2ccccc2)C1` (stereo unspecified), for which the T/C runs as follows: (dose: 12.5 mg/kg/injection, schedule: Q01DX009 (ip), vehicle: saline with Tween-80) 100 % of control; (dose: 25.0 mg/kg/injection, schedule: Q01DX009 (ip), vehicle: saline with Tween-80) 105 % of control; under setting [4], 97 % of control.

As to `CCOC(=O)C(=O)Nc1cccc(NC(=O)C(=O)OCC)n1`, the T/C reads like this: under setting [1], 100 % of control; under setting [2], 94 % of control.

In the case of `Cc1ccc(Nc2nnc(-c3ccc4c(c3)OCO4)o2)c(C)c1`, the T/C was 97 % of control under setting [5]; 97 % of control (dose: 100.0 mg/kg/injection, schedule: Q01DX005 (ip), vehicle: Klucel (hydroxypropylcellulose) (HPC)); 100 % of control (dose: 200.0 mg/kg/injection, schedule: Q01DX005 (ip), vehicle: Klucel (hydroxypropylcellulose) (HPC)).

On to `Cc1cc(NCCCCCCNc2cc(C)nc3cc([N+](=O)[O-])ccc23)c2ccc([N+](=O)[O-])cc2n1`, for which the T/C by setting is: (dose: 50.0 mg/kg/injection, schedule: Q01DX009 (ip), vehicle: other) 98 % of control; (dose: 100.0 mg/kg/injection, schedule: Q01DX009 (ip), vehicle: other) 99 % of control; (dose: 200.0 mg/kg/injection, schedule: Q01DX009 (ip), vehicle: other) 96 % of control; (dose: 400.0 mg/kg/injection, schedule: Q01DX009 (ip), vehicle: other) 103 % of control.

Take `C/C(=N\Nc1ccc([N+](=O)[O-])cc1[N+](=O)[O-])c1ccc(C)cc1`: the T/C (dose: 50.0 mg/kg/injection, schedule: Q01DX001 (ip), vehicle: Klucel (hydroxypropylcellulose) (HPC)) was 105 % of control; the T/C (dose: 100.0 mg/kg/injection, schedule: Q01DX001 (ip), vehicle: Klucel (hydroxypropylcellulose) (HPC)) is 107 % of control; the T/C (dose: 200.0 mg/kg/injection, schedule: Q01DX001 (ip), vehicle: Klucel (hydroxypropylcellulose) (HPC)) was 95 % of control; the T/C (dose: 400.0 mg/kg/injection, schedule: Q01DX001 (ip), vehicle: Klucel (hydroxypropylcellulose) (HPC)) is 91 % of control.

For `Cc1[nH]c(C)c(Cl)c(=O)c1Cl`, the T/C (dose: 6.25 mg/kg/injection, schedule: Q01DX009 (ip), vehicle: Klucel (hydroxypropylcellulose) (HPC)) is 98 % of control; the T/C (dose: 12.5 mg/kg/injection, schedule: Q01DX009 (ip), vehicle: Klucel (hydroxypropylcellulose) (HPC)) was 100 % of control; the T/C (dose: 25.0 mg/kg/injection, schedule: Q01DX009 (ip), vehicle: Klucel (hydroxypropylcellulose) (HPC)) was 115 % of control.

Take `CC1CS(=O)(=O)O1` (stereo unspecified): the T/C runs as follows: (dose: 60.0 mg/kg/injection, schedule: Q01DX005 (ip), vehicle: Klucel (hydroxypropylcellulose) (HPC)) 104 % of control; (dose: 120.0 mg/kg/injection, schedule: Q01DX005 (ip), vehicle: Klucel (hydroxypropylcellulose) (HPC)) 103 % of control; (dose: 240.0 mg/kg/injection, schedule: Q01DX005 (ip), vehicle: Klucel (hydroxypropylcellulose) (HPC)) 110 % of control.

As to `O=C(Cn1c(=O)sc2ccc(Cl)cc21)N1CCN(CCO)CC1`, the T/C runs as follows: under setting [6], 105 % of control; under setting [7], 105 % of control; under setting [8], 99 % of control; under setting [9], 94 % of control.

As to `Cc1ccc(S(=O)(=O)OI(C#CC(C)(C)C)c2ccccc2)cc1`, the T/C is 102 % of control (dose: 12.5 mg/kg/injection, schedule: Q01DX005 (ip), vehicle: Klucel (hydroxypropylcellulose) (HPC)); 102 % of control (dose: 25.0 mg/kg/injection, schedule: Q01DX005 (ip), vehicle: Klucel (hydroxypropylcellulose) (HPC)); 101 % of control and 117 % of control under setting [5].

Regarding `Cc1ccc(C2N3CCCN2CC3)cc1` (stereo unspecified), the T/C runs as follows: under setting [4], 104 % of control; under setting [10], 102 % of control; under setting [11], 109 % of control.

As for `CC1=C(CO)C(=O)OC(C(C)C2CCC3C4CC5OC56C(O)C(N5CCOCC5)CC(=O)C6(C)C4CCC23C)C1` (stereo unspecified), the T/C (dose: 8.25 mg/kg/injection, schedule: Q01DX005 (ip), vehicle: Klucel (hydroxypropylcellulose) (HPC)) is 103 % of control; the T/C (dose: 16.5 mg/kg/injection, schedule: Q01DX005 (ip), vehicle: Klucel (hydroxypropylcellulose) (HPC)) is 99 % of control; the T/C (dose: 33.0 mg/kg/injection, schedule: Q01DX005 (ip), vehicle: Klucel (hydroxypropylcellulose) (HPC)) is 97 % of control; the T/C (dose: 66.0 mg/kg/injection, schedule: Q01DX005 (ip), vehicle: Klucel (hydroxypropylcellulose) (HPC)) is 97 % of control; the T/C (dose: 132.0 mg/kg/injection, schedule: Q01DX005 (ip), vehicle: Klucel (hydroxypropylcellulose) (HPC)) is 103 % of control.

Regarding `CCN(CC)CC.[CH-]1CCCCC1.[CH-]1CCCCC1.[CH-]1CCCCC1.[Cl-].[N-]=C=NC(=O)NC1CCCCC1.[Sn+4]`, the T/C is 92 % of control (dose: 1.5 mg/kg/injection, schedule: Q01DX005 (ip), vehicle: Klucel (hydroxypropylcellulose) (HPC)); 92 % of control (dose: 3.0 mg/kg/injection, schedule: Q01DX005 (ip), vehicle: Klucel (hydroxypropylcellulose) (HPC)); 102 % of control and 92 % of control (dose: 6.0 mg/kg/injection, schedule: Q01DX005 (ip), vehicle: Klucel (hydroxypropylcellulose) (HPC)).

On to `O=C(CN1CCCCC1)Nc1cccc(Cl)c1`, for which the T/C runs as follows: under setting [4], 100 % of control; under setting [7], 103 % of control; under setting [10], 100 % of control; under setting [8], 107 % of control; under setting [11], 123 % of control; under setting [9], 120 % of control.

Regarding `CO[C@@]12[C@H](COC(N)=O)C3=C(C(=O)C(C)=C(N)C3=O)N1C[C@H]1[C@@H]2N1C(=O)[C@@H]1N2C(=O)[C@@H](NC(=O)Cc3ccccc3)[C@H]2SC1(C)C`, the T/C reads like this: (dose: 6.25 mg/kg/injection, schedule: Q01DX009 (ip), vehicle: saline) 116 % of control; (dose: 12.5 mg/kg/injection, schedule: Q01DX009 (ip), vehicle: saline) 155 % of control; under setting [6], 155 % of control; under setting [7], 165 % of control.

Take `COc1cc2c(c(OC)c1OC)-c1cc3c(cc1CC(COC(C)=O)C(COC(C)=O)C2)OCO3` (stereo unspecified): the T/C was 103 % of control (dose: 6.25 mg/kg/injection, schedule: Q04DX002 (ip), vehicle: saline with Tween-80); 101 % of control (dose: 12.5 mg/kg/injection, schedule: Q04DX002 (ip), vehicle: saline with Tween-80); 100 % of control (dose: 25.0 mg/kg/injection, schedule: Q04DX002 (ip), vehicle: saline with Tween-80).
